Experimental data published in US20020010182A1, “Piperazine derivatives as tachykinin antagonists” (FUJISAWA PHARMACEUTICAL CO., LTD., priority 1995, published 2002).

Experiments:
emesis in the ferret = assay: Emesis in the ferret (copper sulfate induced); type: in vivo; conditions: i.p. dose of 3.2 and/or 10 mg/kg, 30 min before intra-gastric copper sulfate (40 mg/kg/ml); retching and vomiting observed for 30 min
Method: Individually housed adult male ferrets (Marshall Farms, 1.4 to 2.2 kg) were given an i.p. injection of a solution containing a test compound 30 Min later the emetic responses (retching and vomiting) were induced by administration of intra-gastric copper sulfate (40 mg/kg/ml) and observed for the next 30 min. The timing and number of retches and vomits observed were recorded for each animal. An individual animal was tested with at least 10 days between experiments.

h-NK1 receptors = biological target: T1, h-NK1 receptors (Homo sapiens, UniProt P25103); assay: Evaluation of NK1 antagonist transport efficiency to the central nervous system using a h-NK1 receptor binding assay; conditions: 5 min, brain extract of male SD rats 5 min after i.v. injection of test compound, CHO cell membranes expressing h-NK1, read-out: inhibition rate of 125I-BH-Substance P binding to h-NK1 receptors
T1 construct: expressed in transfected cells; host or cells: CHO cells (permanent expression), crude cell membranes
Outline: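 Male SD rats dosed i.v. at 1 mg/kg; brain removed 5 min later after saline perfusion, homogenized, extracted with ethyl acetate. Extract competed against 0.1 nM 125I-BH-Substance P on CHO h-NK1 membranes, 22 °C, 90 min, pH 7.4 Mn2+ buffer; specific binding defined with 3 μM unlabeled Substance P.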

T1 sequence (P25103 whole entry): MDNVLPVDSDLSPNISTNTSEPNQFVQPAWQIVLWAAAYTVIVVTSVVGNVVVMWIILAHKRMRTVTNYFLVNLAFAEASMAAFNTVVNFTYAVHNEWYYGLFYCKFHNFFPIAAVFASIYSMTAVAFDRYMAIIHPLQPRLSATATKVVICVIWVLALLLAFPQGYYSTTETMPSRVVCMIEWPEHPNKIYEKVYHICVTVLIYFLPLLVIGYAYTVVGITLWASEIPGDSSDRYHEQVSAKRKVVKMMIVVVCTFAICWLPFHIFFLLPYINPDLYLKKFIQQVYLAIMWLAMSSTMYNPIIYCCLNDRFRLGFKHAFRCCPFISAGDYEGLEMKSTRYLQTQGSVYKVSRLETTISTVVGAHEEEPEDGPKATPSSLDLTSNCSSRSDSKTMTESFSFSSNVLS

Row | Compound | inhibition rate of emesis in the ferret (emesis in the ferret) [%] | inhibition at 1 mg/kg (h-NK1 receptors) [%] | melting point
1 | Cc1ccc(C[C@@H]2CN(CCCN3CCSCC3)CCN2C(=O)c2cc(C(F)(F)F)cc(C(F)(F)F)c2)cc1C.Cl.Cl [24-(2), (2R)-1-[3,5-Bis(trifluoromethyl)benzoyl]-2-(3,4-dimethylbenzyl)-4-(3-thiomorpholinopropyl) piperazine dihydrochloride] | 100 | > 80 | 272 °C (dec.)
2 | Cl.Cl.O=C(c1cc(C(F)(F)F)cc(C(F)(F)F)c1)N1CCN(CCCN2CC3CCC(CC3)C2)C[C@H]1Cc1c[nH]c2ccccc12 [Example 22, (2R)-4-[3-(3-azabicyclo(3.2.2]non-3-yl)propyl]-1-[3,5-bis(trifluoromethyl)benzoyl]-2-(1H-indol-3-ylmethyl) piperazine dihydrochloride] | 100 | > 80 | 194 to 202 °C
3 | Cl.Cl.O=C(c1cc(C(F)(F)F)cc(C(F)(F)F)c1)N1CCN(CCN2CCSCC2)C[C@H]1Cc1c[nH]c2ccccc12 [Example 37-(6), (2R)-4-(2-Thiomorpholinoethyl)-1-[3,5-bis (trifluoromethyl)benzoyl]-2-(1H-indol-3-ylmethyl) piperazine dihydrochloride] | 100 | > 80 | 170 to 182 °C
